Assay results from patent publication US20240350469A1, “TREATMENT OF LOWER RESPIRATORY TRACT INFECTION WITH TRADIPITANT” (Vanda Pharmaceuticals Inc., priority 2021, published 2024).

System: severe or critical COVID-19 infection
Experiment: Randomized, double-blind, placebo-controlled study of tradipitant in hospitalized patients with COVID-19 pneumonia (interim analysis, ITT)
Format: in vivo
Conditions: for Ordinal Score at Day 7 = 7 (Not hospitalized), no. of patients / Ordinal Score at Day 28 = 1 (Death), % of patients / Ordinal Score at Day 28 = 1 (Death), no. of patients / Ordinal Score at Day 28 = 2 (Hospitalized, on invasive mechanical ventilation or ECMO), % of patients / Ordinal Score at Day 28 = 2 (Hospitalized, on invasive mechanical ventilation or ECMO), no. of patients / Ordinal Score at Day 28 = 3 (Hospitalized, on non-invasive ventilation or high flow oxygen devices), % of patients / Ordinal Score at Day 28 = 3 (Hospitalized, on non-invasive ventilation or high flow oxygen devices), no. of patients / Ordinal Score at Day 28 = 4 (Hospitalized, requiring supplemental oxygen), % of patients / Ordinal Score at Day 28 = 4 (Hospitalized, requiring supplemental oxygen), no. of patients / Ordinal Score at Day 28 = 7 (Not hospitalized), % of patients / Ordinal Score at Day 28 = 7 (Not hospitalized), no. of patients / No. of deaths by day 7 / No. of deaths by day 28 / Ordinal Score at Day 7 = 1 (Death), % of patients / Ordinal Score at Day 7 = 1 (Death), no. of patients / Ordinal Score at Day 7 = 2 (Hospitalized, on invasive mechanical ventilation or ECMO), % of patients / Ordinal Score at Day 7 = 2 (Hospitalized, on invasive mechanical ventilation or ECMO), no. of patients / Ordinal Score at Day 7 = 3 (Hospitalized, on non-invasive ventilation or high flow oxygen devices), % of patients / Ordinal Score at Day 7 = 3 (Hospitalized, on non-invasive ventilation or high flow oxygen devices), no. of patients / Ordinal Score at Day 7 = 4 (Hospitalized, requiring supplemental oxygen), % of patients / Ordinal Score at Day 7 = 4 (Hospitalized, requiring supplemental oxygen), no. of patients / Ordinal Score at Day 7 = 5 (Hospitalized, not requiring supplemental oxygen), % of patients / Ordinal Score at Day 7 = 5 (Hospitalized, not requiring supplemental oxygen), no. of patients / Ordinal Score at Day 7 = 7 (Not hospitalized), % of patients: ITT
[1] = ordinal score at baseline 3, tradipitant N = 13
[2] = ordinal score at baseline 4, tradipitant N = 9

Structure (SMILES): O=C(c1ccccc1Cl)c1cccnc1-c1nnn(Cc2cc(C(F)(F)F)cc(C(F)(F)F)c2)c1-c1ccncc1 [Tradipitant]
- Ordinal Score at Day 7 = 7 (Not hospitalized), no. of patients [1]: 1
- Ordinal Score at Day 28 = 1 (Death), % of patients [1]: (7.7) %
- Ordinal Score at Day 28 = 1 (Death), no. of patients [1]: 1
- Ordinal Score at Day 28 = 2 (Hospitalized, on invasive mechanical ventilation or ECMO), % of patients [1]: (61.5) %
- Ordinal Score at Day 28 = 2 (Hospitalized, on invasive mechanical ventilation or ECMO), no. of patients [1]: 8
- Ordinal Score at Day 28 = 3 (Hospitalized, on non-invasive ventilation or high flow oxygen devices), % of patients [1]: (0.0) %
- Ordinal Score at Day 28 = 3 (Hospitalized, on non-invasive ventilation or high flow oxygen devices), no. of patients [1]: 0
- Ordinal Score at Day 28 = 4 (Hospitalized, requiring supplemental oxygen), % of patients [1]: (0.0) %
- Ordinal Score at Day 28 = 4 (Hospitalized, requiring supplemental oxygen), no. of patients [1]: 0
- Ordinal Score at Day 28 = 7 (Not hospitalized), % of patients [1]: (30.8) %
- Ordinal Score at Day 28 = 7 (Not hospitalized), no. of patients [1]: 4
- No. of deaths by day 7 [2]: 1
- No. of deaths by day 28 [2]: 1
- Ordinal Score at Day 7 = 1 (Death), % of patients [2]: (11.1) %
- Ordinal Score at Day 7 = 1 (Death), no. of patients [2]: 1
- Ordinal Score at Day 7 = 2 (Hospitalized, on invasive mechanical ventilation or ECMO), % of patients [2]: (0.0) %
- Ordinal Score at Day 7 = 2 (Hospitalized, on invasive mechanical ventilation or ECMO), no. of patients [2]: 0
- Ordinal Score at Day 7 = 3 (Hospitalized, on non-invasive ventilation or high flow oxygen devices), % of patients [2]: (11.1) %
- Ordinal Score at Day 7 = 3 (Hospitalized, on non-invasive ventilation or high flow oxygen devices), no. of patients [2]: 1
- Ordinal Score at Day 7 = 4 (Hospitalized, requiring supplemental oxygen), % of patients [2]: (11.1) %
- Ordinal Score at Day 7 = 4 (Hospitalized, requiring supplemental oxygen), no. of patients [2]: 1
- Ordinal Score at Day 7 = 5 (Hospitalized, not requiring supplemental oxygen), % of patients [2]: (0.0) %
- Ordinal Score at Day 7 = 5 (Hospitalized, not requiring supplemental oxygen), no. of patients [2]: 0
- Ordinal Score at Day 7 = 7 (Not hospitalized), % of patients [2]: (66.7) %
- Ordinal Score at Day 7 = 7 (Not hospitalized), no. of patients [2]: 6
- Ordinal Score at Day 28 = 1 (Death), % of patients [2]: (11.1) %
- Ordinal Score at Day 28 = 1 (Death), no. of patients [2]: 1
- Ordinal Score at Day 28 = 2 (Hospitalized, on invasive mechanical ventilation or ECMO), % of patients [2]: (0.0) %
- Ordinal Score at Day 28 = 2 (Hospitalized, on invasive mechanical ventilation or ECMO), no. of patients [2]: 0
- Ordinal Score at Day 28 = 3 (Hospitalized, on non-invasive ventilation or high flow oxygen devices), % of patients [2]: (11.1) %
- Ordinal Score at Day 28 = 3 (Hospitalized, on non-invasive ventilation or high flow oxygen devices), no. of patients [2]: 1
- Ordinal Score at Day 28 = 4 (Hospitalized, requiring supplemental oxygen), % of patients [2]: (0.0) %
- Ordinal Score at Day 28 = 4 (Hospitalized, requiring supplemental oxygen), no. of patients [2]: 0
- Ordinal Score at Day 28 = 7 (Not hospitalized), % of patients [2]: (77.8) %
- Ordinal Score at Day 28 = 7 (Not hospitalized), no. of patients [2]: 7
- No. of deaths by day 7 (overall, tradipitant N = 28): 2
- No. of deaths by day 28 (overall, tradipitant N = 28): 4
- Ordinal Score at Day 7 = 1 (Death), % of patients (overall, tradipitant N = 28): (7.1) %
- Ordinal Score at Day 7 = 1 (Death), no. of patients (overall, tradipitant N = 28): 2
- Ordinal Score at Day 7 = 2 (Hospitalized, on invasive mechanical ventilation or ECMO), % of patients (overall, tradipitant N = 28): (32.1) %
- Ordinal Score at Day 7 = 2 (Hospitalized, on invasive mechanical ventilation or ECMO), no. of patients (overall, tradipitant N = 28): 9
- Ordinal Score at Day 7 = 3 (Hospitalized, on non-invasive ventilation or high flow oxygen devices), % of patients (overall, tradipitant N = 28): (14.3) %
- Ordinal Score at Day 7 = 3 (Hospitalized, on non-invasive ventilation or high flow oxygen devices), no. of patients (overall, tradipitant N = 28): 4
- Ordinal Score at Day 7 = 4 (Hospitalized, requiring supplemental oxygen), % of patients (overall, tradipitant N = 28): (7.1) %
- Ordinal Score at Day 7 = 4 (Hospitalized, requiring supplemental oxygen), no. of patients (overall, tradipitant N = 28): 2
- Ordinal Score at Day 7 = 5 (Hospitalized, not requiring supplemental oxygen), % of patients (overall, tradipitant N = 28): (7.1) %
- Ordinal Score at Day 7 = 5 (Hospitalized, not requiring supplemental oxygen), no. of patients (overall, tradipitant N = 28): 2
- Ordinal Score at Day 7 = 7 (Not hospitalized), % of patients (overall, tradipitant N = 28): (32.1) %
- Ordinal Score at Day 7 = 7 (Not hospitalized), no. of patients (overall, tradipitant N = 28): 9
- Ordinal Score at Day 28 = 1 (Death), % of patients (overall, tradipitant N = 28): (14.3) %
- Ordinal Score at Day 28 = 1 (Death), no. of patients (overall, tradipitant N = 28): 4
- Ordinal Score at Day 28 = 2 (Hospitalized, on invasive mechanical ventilation or ECMO), % of patients (overall, tradipitant N = 28): (28.6) %
- Ordinal Score at Day 28 = 2 (Hospitalized, on invasive mechanical ventilation or ECMO), no. of patients (overall, tradipitant N = 28): 8
- Ordinal Score at Day 28 = 3 (Hospitalized, on non-invasive ventilation or high flow oxygen devices), % of patients (overall, tradipitant N = 28): (3.6) %
- Ordinal Score at Day 28 = 3 (Hospitalized, on non-invasive ventilation or high flow oxygen devices), no. of patients (overall, tradipitant N = 28): 1
- Ordinal Score at Day 28 = 4 (Hospitalized, requiring supplemental oxygen), % of patients (overall, tradipitant N = 28): (0.0) %
- Ordinal Score at Day 28 = 4 (Hospitalized, requiring supplemental oxygen), no. of patients (overall, tradipitant N = 28): 0
- Ordinal Score at Day 28 = 7 (Not hospitalized), % of patients (overall, tradipitant N = 28): (53.6) %
- Ordinal Score at Day 28 = 7 (Not hospitalized), no. of patients (overall, tradipitant N = 28): 15
- Mortality rate (tradipitant arm, interim analysis, placebo arm 16.6%, not statistically significant): 14.2%
- Patients showing clinical improvement (at least a 2 point improvement in the 7 point ordinal scale) (tradipitant arm, interim analysis, placebo arm 50%, not statistically significant): 57%
- Time to improvement analysis (tradipitant vs placebo, FIG. 1, statistically significant at day 7): recover earlier than those receiving placebo
